Test results from PMC5034043 (The Journal of Biological Chemistry, 2016).
Read-outs that look alike come from different tables or passages of the source.

System: T1, synaptosomal proteome
T1 construct: from tissue; host or cells: brain synaptosomes of male C57/B6 mice
Type: binding, mouse
Description: Synaptosomes were resuspended to 1 mg of protein/ml in HEPES buffer medium (in mM: 140 NaCl, 5 KCl, 5 NaHCO3, 1.2 NaH2PO4, 1 MgCl2, 10 glucose, and 10 HEPES (pH 7.4)). […] The samples were allowed to equilibrate for 5 min before being transferred to a parafilm-sealed 1-mm path length quartz cuvette. The sample was then irradiated for 20 min at a peak bandwidth of 350 nm (Rayonet RPR-3500 lamp) ∼6 cm from the light source. Non-irradiated samples were left in the dark at ambient temperature (22–25 °C) for 20 min. All remaining procedures were conducted with restricted light exposure.
To 750 μg of photolabeled or control synaptosome samples, 40 μl of 10% SDS and 2 μl of 5 mM DTT in water were added. Samples were then vortexed, heated for 10 min at 65 °C, and then briefly cooled. Final concentrations of 150 μM azide-biotin (Click Chemistry Tools), 2 mM tris(3-hydroxypropyltriazolylmethyl)amine (Sigma), 1 mM ascorbic acid (Sigma), and 1 mM CuSO4·5H2O (Sigma) were added to each sample and vortexed vigorously. The samples were left in the dark at ambient temperature (22–25 °C) for 1 h with mild agitation. Directly to each sample 4× volume chilled methanol, 1.5× chilled chloroform, and 3× chilled double distilled H2O were added. Samples were vortexed vigorously and centrifuged at 1,400 × g for 30 min at 4 °C. Both liquid layers were carefully removed, and the protein pellet was washed with 2 ml of 1:1 (v/v) chilled methanol/chloroform. Samples were centrifuged at 3,500 × g for 30 min at 4 °C. Protein pellets were briefly air-dried before further processing.
750 μg of biotin-conjugated protein sample was resuspended in 500 μl of 25 mM NH4HCO3 and 6 M urea in water. Next, 150 μl of 5% Triton X-100 in water, 50 μl of 10% SDS in water, and 1.5 μl of 0.5 M DTT were added. The samples were heated for 15 min at 65 °C. After briefly cooling, 14 μl of 0.5 M iodoacetamide in water was added, and the sample was left in the dark for 45 min. […] The supernatant was diluted to 4 ml with PBS, and 2 ml of PBS containing 100 μl of 50% streptavidin-agarose resin (Thermo Scientific) was added. Biotinylated proteins within the sample were captured over resin overnight at 4 °C with mild agitation. The resin was first washed with 6 ml of 1% SDS in PBS, and then 7 ml of 0.1 M urea in PBS followed by 10 ml of PBS. The resin underwent a final wash with 0.9 ml of 50 mM Tris-HCl and 1 mM CaCl2 in water (pH 8.0) and then resuspended in 200 μl of 50 mM Tris-HCl, 1 mM CaCl2 in water (pH 8.0), and 2 μg of porcine sequencing grade trypsin (Promega). Samples were digested overnight at 37 °C. Samples were then centrifuged at 2,000 × g for 4 min, and digest supernatant was decanted. Beads were washed in 100 μl of PBS centrifuged at 5,200 × g for 5 min, and the wash was combined with the digest supernatant. To the combined sample, trifluoroacetic acid (TFA) was added to 0.4% (v/v) or until pH <2. The sample was desalted with Oasis C18 10-mg columns (Waters) as described previously ([66]). The eluted sample was dried by speed vac and resuspended in 0.1 M HEPES buffer (pH 8.5). […] Appropriate corresponding TMTsixplex^TM-labeled samples were pooled and dried by speed vac. The combined samples were resuspended in 0.5% acetic acid in water and pH-corrected with acetic acid until pH was <2. 40 μg of protein was desalted with C18 stage tips prepared in-house and dried by speed vac.
Samples were resuspended in 10 mM KH2PO4 (pH 2.6), 30% acetonitrile (v/v) in water, and fractionated by off-line strong cation exchange chromatography prior to mass spectrometry (MS) analysis similar to as reported previously ([66]). The full synaptosome proteome control was prepared similarly without TMTsixplex^TM labeling.
All TMT samples were analyzed with three-stage mass spectrometry (MS3) TMTsixplex^TM quantification workflow as described previously ([34]).

[1] = protein P27671 Ras-specific guanine nucleotide-releasing factor 1 (Rasgrf1)
[2] = protein P35762 CD81 antigen (Cd81)
[3] = protein P46096 Synaptotagmin-1 (Syt1)
[4] = protein P50544 Very long-chain specific acyl-CoA dehydrogenase, mitochondrial (Acadvl)
[5] = protein P50571 Gamma-aminobutyric acid receptor subunit beta-1 (Gabrb1)
[6] = protein P56564 Excitatory amino acid transporter 1 (Slc1a3)
[7] = protein P60879 Synaptosomal-associated protein 25 (Snap25)
[8] = protein P61264 Syntaxin-1B (Stx1b)
[9] = protein P62204 Calmodulin (Calm1)
[10] = protein P63328 Serine/threonine-protein phosphatase 2B catalytic subunit alpha isoform (Ppp3ca)
[11] = protein Q2TPA8 Hydroxysteroid dehydrogenase-like protein 2 (Hsdl2)
[12] = protein Q3TXX4 Vesicular glutamate transporter 1 (Slc17a7)
[13] = protein Q3UN02 Lysocardiolipin acyltransferase 1 (Lclat1)
[14] = protein Q4W8U9 Scg2 protein (Scg2)
[15] = protein Q5U458 DnaJ homolog subfamily C member 11 (Dnajc11)
[16] = protein Q7TME0 Lipid phosphate phosphatase-related protein type 4 (Lppr4)
[17] = protein Q7TQ95 Protein lunapark (Lnp)
[18] = protein Q8BFT9 Synaptic vesicle 2-related protein (Svop)
[19] = protein Q8BG39 Synaptic vesicle glycoprotein 2B (Sv2b)
[20] = protein Q8BH59 Calcium-binding mitochondrial carrier protein Aralar1 (Slc25a12)
[21] = protein Q8BH66 Atlastin-1 (Atl1)
[22] = protein Q8BUN9 Protein Slc24a2 (Slc24a2)
[23] = protein Q8BW75 Amine oxidase [flavin-containing] B (Maob)
[24] = protein Q8CGK7 Guanine nucleotide-binding protein G(olf) subunit alpha (Gnal)
[25] = protein Q8K0T0 Reticulon-1 (Rtn1)
[26] = protein Q9CPQ3 Mitochondrial import receptor subunit TOM22 homolog (Tomm22)
[27] = protein Q9CWK8 Sorting nexin-2 (Snx2)
[28] = protein Q9D6J5 NADH dehydrogenase [ubiquinone] 1 beta subcomplex subunit 8, mitochondrial (Ndufb8)
[29] = protein Q9D328 Transmembrane protein 35 (Tmem35)
[30] = protein Q9ERS2 NADH dehydrogenase [ubiquinone] 1 alpha subcomplex subunit 13 (Ndufa13)
[31] = protein Q9ESW4 Acylglycerol kinase, mitochondrial (Agk)
[32] = protein Q9QXV0 ProSAAS (Pcsk1n)
[33] = protein Q9QZM0 Ubiquilin-2 (Ubqln2)
[34] = protein Q9R0K7 Plasma membrane calcium-transporting ATPase 2 (Atp2b2)
[35] = protein Q9Z0V2 Potassium voltage-gated channel subfamily D member 2 (Kcnd2)
[36] = protein Q67BT3 Solute carrier family 13 member 5 (Slc13a5)
[37] = protein Q80X80 C2 domain-containing protein 2-like (C2cd2l)
[38] = protein Q91YQ5 Dolichyl-diphosphooligosaccharide--protein glycosyltransferase subunit 1 (Rpn1)
[39] = protein Q99PU5 Long-chain-fatty-acid--CoA ligase ACSBG1 (Acsbg1)

Compound: CC(C)c1cccc(C(C)C)c1O [propofol, 2,6-diisopropylphenol, reference compound]
- % propofol protection [1]: 54%
- Log2( Mean 'UV/ UV+propofol') [1]: 1.10
- % propofol protection (protein P35564 Calnexin (Canx)): 54%
- Log2( Mean 'UV/ UV+propofol') (protein P35564 Calnexin (Canx)): 1.07
- % propofol protection [2]: 58%
- Log2( Mean 'UV/ UV+propofol') [2]: 1.14
- % propofol protection [3]: 50%
- Log2( Mean 'UV/ UV+propofol') [3]: 0.95
- % propofol protection [4]: 51%
- Log2( Mean 'UV/ UV+propofol') [4]: 0.99
- % propofol protection [5]: 58%
- Log2( Mean 'UV/ UV+propofol') [5]: 1.06
- Log2( Mean 'UV/ UV+propofol') (protein P56480 ATP synthase subunit beta, mitochondrial (Atp5b)): 1.15
- % propofol protection [6]: 56%
- Log2( Mean 'UV/ UV+propofol') [6]: 1.10
- % propofol protection [7]: 57%
- Log2( Mean 'UV/ UV+propofol') [7]: 1.12
- % propofol protection [8]: 57%
- Log2( Mean 'UV/ UV+propofol') [8]: 1.14
- % propofol protection [9]: 53%
- Log2( Mean 'UV/ UV+propofol') [9]: 0.97
- % propofol protection [10]: 52%
- Log2( Mean 'UV/ UV+propofol') [10]: 0.93
- % propofol protection [11]: 53%
- Log2( Mean 'UV/ UV+propofol') [11]: 1.03
- % propofol protection [12]: 57%
- Log2( Mean 'UV/ UV+propofol') [12]: 1.15
- % propofol protection [13]: 52%
- Log2( Mean 'UV/ UV+propofol') [13]: 1.03
- % propofol protection [14]: 53%
- Log2( Mean 'UV/ UV+propofol') [14]: 0.99
- Log2( Mean 'UV/ UV+propofol') (protein Q5IRJ6 Zinc transporter 9 (Slc30a9)): 1.17
- % propofol protection [15]: 53%
- Log2( Mean 'UV/ UV+propofol') [15]: 0.96
- % propofol protection [16]: 57%
- Log2( Mean 'UV/ UV+propofol') [16]: 1.08
- % propofol protection [17]: 58%
- Log2( Mean 'UV/ UV+propofol') [17]: 1.23
- % propofol protection [18]: 53%
- Log2( Mean 'UV/ UV+propofol') [18]: 0.94
- % propofol protection [19]: 50%
- Log2( Mean 'UV/ UV+propofol') [19]: 0.94
- Log2( Mean 'UV/ UV+propofol') (protein Q8BG51 Mitochondrial Rho GTPase 1 (Rhot1)): 1.18
- Log2( Mean 'UV/ UV+propofol') (protein Q8BH24 Transmembrane 9 superfamily member 4 (Tm9sf4)): 1.11
- % propofol protection [20]: 50%
- Log2( Mean 'UV/ UV+propofol') [20]: 0.98
- % propofol protection [21]: 57%
- Log2( Mean 'UV/ UV+propofol') [21]: 1.14
- % propofol protection [22]: 52%
- Log2( Mean 'UV/ UV+propofol') [22]: 1.03
- % propofol protection [23]: 56%
- Log2( Mean 'UV/ UV+propofol') [23]: 1.10
- % propofol protection [24]: 55%
- Log2( Mean 'UV/ UV+propofol') [24]: 1.05
- % propofol protection [25]: 57%
- Log2( Mean 'UV/ UV+propofol') [25]: 1.05
- Log2( Mean 'UV/ UV+propofol') (protein Q8VCX5 Calcium uptake protein 1, mitochondrial (Micu1)): 1.09
- % propofol protection [26]: 57%
- Log2( Mean 'UV/ UV+propofol') [26]: 1.05
- % propofol protection [27]: 51%
- Log2( Mean 'UV/ UV+propofol') [27]: 1.00
- % propofol protection [28]: 57%
- Log2( Mean 'UV/ UV+propofol') [28]: 1.23
- % propofol protection [29]: 55%
- Log2( Mean 'UV/ UV+propofol') [29]: 1.10
- % propofol protection [30]: 53%
- Log2( Mean 'UV/ UV+propofol') [30]: 0.98
- % propofol protection [31]: 58%
- Log2( Mean 'UV/ UV+propofol') [31]: 1.18
- Log2( Mean 'UV/ UV+propofol') (protein Q9JIG8 PRA1 family protein 2 (Praf2)): 1.23
- % propofol protection [32]: 57%
- Log2( Mean 'UV/ UV+propofol') [32]: 1.11
- % propofol protection [33]: 51%
- Log2( Mean 'UV/ UV+propofol') [33]: 0.96
- % propofol protection [34]: 51%
- Log2( Mean 'UV/ UV+propofol') [34]: 1.00
- Log2( Mean 'UV/ UV+propofol') (protein Q9WU79 Proline dehydrogenase 1, mitochondrial (Prodh)): 1.11
- % propofol protection [35]: 52%
- Log2( Mean 'UV/ UV+propofol') [35]: 1.01
- % propofol protection [36]: 57%
- Log2( Mean 'UV/ UV+propofol') [36]: 1.13
- % propofol protection [37]: 53%
- Log2( Mean 'UV/ UV+propofol') [37]: 1.04
- % propofol protection [38]: 55%
- Log2( Mean 'UV/ UV+propofol') [38]: 1.11
- % propofol protection [39]: 58%
- Log2( Mean 'UV/ UV+propofol') [39]: 1.12
- Log2( Mean 'UV/ UV+propofol') (protein Q925I1 ATPase family AAA domain-containing protein 3 (Atad3)): 1.17
